Earlier results on one compound are cited in patent US20120148541A1, “COMPOSITIONS AND METHODS TO GENERATE PILOSEBACEOUS UNITS” (priority 2010, published 2012).

For series [1] the following is noted: in published reports.
The conditions of series [2]: DMSO.

On to `c1cc(-c2cnn3cc(-c4ccc(OCCN5CCCCC5)cc4)cnc23)ccn1` [Dorsomorphin, dorsomorphin], for which, in series [1], the toxicity entry was “low toxicity”. In addition, the solubility entry in series [2] was “soluble in DMSO”.
